Results: article PMC9043997, “LEAP2 reduces postprandial glucose excursions and ad libitum food intake in healthy men” (Cell Reports Medicine, 2022)
Where a SMILES comes first, the peptide text is derived from it. Bridges are numbered along the chain shown (N, C = ends).

How the values were obtained:
Assay type in all cases: in vivo, human
[1] = system: healthy men; assay: Plasma glucose during LEAP2 infusion with liquid mixed meal test, crossover study; conditions: mean ± SEM
From the text: (§1) The infusion was terminated when participants had finished eating.
(§2) For analysis of plasma glucose, blood was distributed in fluoride heparin-coated tubes, centrifuged immediately for 30 s (12,100 g, room temperature) and measured bedside by the glucose oxidase method (YSI 2900 Biochemistry Analyzer; YSI Incorporated, Yellow Springs, Ohio, USA). For analysis of LEAP2, blood was collected in chilled K3EDTA tubes each containing 250 KIU of aprotinin. For analysis of acyl ghrelin, blood was collected in chilled K2EDTA tubes added 20 μL pefabloc (100 mg/mL; Merck Millipore, Burlington, Massachusetts, USA). Subsequently, pefabloc-treated plasma was acidified with HCl (12.5 μL 2M HCl per 500 μL plasma; Merck Millipore, Burlington, Massachusetts, USA). For analysis of glucagon, blood was collected in K2EDTA tubes. For analysis of GH, insulin, C-peptide, free fatty acids, glycerol, triglycerides and acetaminophen (paracetamol), blood was collected in tubes with lithium and heparin. All tubes were immediately cooled on ice, centrifuged for 15 min (2,000 g, 4°C) and stored at −80°C until analysis. LEAP2 concentrations were determined by an in-house radioimmunoassay directed against the N-terminal part of LEAP2. LEAP-2 was used for standards, and the tracer was a peptide composed of the 12 N-terminal amino acids of LEAP2, with a ^125I-labelled tyrosine added to the C-terminal end. The precision and accuracy of the assay were evaluated based on European Medicines Agency's guidelines for bioanalytical assay validation. […] Due to supply chain disruptions from the COVID-19 pandemic, acyl ghrelin was only measured in plasma samples at timepoints 0, 60, 105, 165 and 255 min. […] Plasma GH was measured by Immunodiagnostic system-iSYS assay (IS-3700; IDS Limited, Boldon, UK). The assay is based on chemiluminesence technology and was performed according to the manufacturer’|'s instructions. […] For analysis of glucagon, plasma was extracted in a final concentration of 70% ethanol. Glucagon was measured using a C-terminal directed antiserum (code number 4305) measuring glucagon of pancreatic origin as previously described.[40] […] Plasma insulin and C-peptide were measured using a two-sided electrochemiluminescence immunoassay (Atellica IM Analyzer; Siemens Healthcare, Ballerup, Denmark). Plasma triglycerides and acetaminophen were analyzed by spectrophotometric methods following enzymatic hydrolysis and oxidation (Siemens Atellica CH 930; Siemens Healthcare, Ballerup, Denmark). Plasma concentrations of free fatty acids and glycerol were determined by enzymatic methods modified to run on a COBAS 6000 automatic analyzer (Roche, Rødovre, Denmark) using a NEFA-HR assay (Wako Chemicals, Neuss, Germany) and glycerol assay (Randox Laboratories, Crumlin, UK), respectively.
(§3) Unless otherwise stated, results are presented as mean ± SEM. Baseline values were calculated as a mean of timepoints −35, −10 and 0 min or, when only available −10 and 0 min. Baseline values for the postprandial period were calculated as a mean of timepoint 60 min. Calculations of AUC were based on the trapezoidal rule. AUC values are reported for the period 0 to 255 min. To assess the fasting and postprandial periods separately, AUC values are reported for the periods 0 to 60 min and 60 to 255 min, respectively. Student’s paired t test was used to test for differences in baseline, peak, time to peak, AUC and mean values and ad libitum food intake in men.

[2] = system: healthy men; assay: Plasma acyl ghrelin during LEAP2 infusion, crossover study; conditions: mean ± SEM
From the text: as §1, §2, §3

[3] = Pharmacokinetic parameters of exogenous LEAP2 in healthy men (one-compartment model)
Method: Eight healthy men, recruited among participants in the placebo-controlled, crossover study, were included in an additional clinical study investigating the kinetic parameters of exogenous LEAP2. Each participant underwent a single experimental day with intravenous infusion of LEAP2 (10 min at a rate of ∼101 pmol/kg/min followed by 110 min at ∼25 pmol/kg/min) (see Figure S1B for an overview of the clinical study design). […] Fasting schedule for participants and all instructions from 48 h prior to the experimental day were similar to the placebo-controlled, crossover study. […] LEAP2 infusion was started at timepoint 0 min and discontinued after 120 min. Blood samples were drawn every 15 min from timepoint −30 to 270 min and, additionally, at timepoints 118, 122, 124, 127 and 130 min. Plasma glucose was measured bedside every 15 min from timepoint −30 to 180 min and every 30 min from timepoint 180 to 270 min with a mean concentration of 4.85 ± 0.02 mmol/L. For analytical procedures related to plasma glucose and LEAP2 concentrations, please see the section “Human plasma analyses”. Every 30 min from time −30 to 270 min, participants rated appetite-related sensations on 100 mm VAS[34] with a score (median (interquartile range)) for hunger of 72 (59–79) mm, prospective food consumption 73 (65–82) mm, satiety 22 (14–33) mm, fullness 21 (12–31) mm, comfort 78 (72–90) mm, thirst 78 (71–89) mm and nausea 3.0 (0–9.0).
We constructed and applied a pharmacokinetic model to the data using the software Monolix (Monolix version 2019R1; Lixoft SAS, Antony, France). The parameters were estimated using the Stochastic Approximation EM algorithm.[22] The one-compartment model assumed input from both endogenous LEAP2 secretion and the exogenous LEAP2 infusion assuming that LEAP2 kinetics followed a single-exponential elimination. We assumed that the endogenous production of LEAP2 was constant i.e. not suppressed during infusion of exogenous LEAP2. This model probably represents a simplification of the actual physiological LEAP2 kinetics, but the data fitted well to model predictions.

[4] = healthy men n = 20, iv LEAP2 ~25 pmol/kg/min, fasting period
[5] = healthy men n = 20, iv LEAP2 ~25 pmol/kg/min, liquid mixed meal at 65 min
[6] = healthy men n = 20, iv LEAP2 ~25 pmol/kg/min, time = 60 min

## CC[C@H](C)[C@@H]1NC(=O)[C@@H]2CSSC[C@@H](C(=O)N[C@@H](CO)C(=O)N[C@@H](CC(C)C)C(=O)N[C@@H](CO)C(=O)N[C@H](C(=O)N[C@@H](C)C(=O)N[C@@H](CCC(N)=O)C(=O)N[C@@H](CCC(=O)O)C(=O)O)C(C)C)NC(=O)[C@H](CCCNC(=N)N)NC(=O)[C@H](CCCNC(=N)N)NC(=O)[C@H](CCCCN)NC(=O)[C@H](CCCNC(=N)N)NC(=O)[C@H](CSSC[C@H](NC(=O)[C@H](CO)NC(=O)[C@H](C)NC(=O)CNC(=O)[C@@H](NC(=O)[C@@H]3CCCN3C(=O)[C@H](CCCNC(=N)N)NC(=O)[C@H](CC(C)C)NC(=O)[C@H](CO)NC(=O)[C@@H](NC(=O)CNC(=O)[C@H](CCCNC(=N)N)NC(=O)[C@H](Cc3c[nH]c4ccccc34)NC(=O)[C@H](Cc3ccccc3)NC(=O)[C@@H]3CCCN3C(=O)[C@@H](NC(=O)[C@@H](N)CCSC)[C@@H](C)O)C(C)C)[C@@H](C)CC)C(=O)N[C@@H](CCCNC(=N)N)C(=O)N[C@@H](CC(=O)O)C(=O)N[C@@H](CC(=O)O)C(=O)N[C@@H](CO)C(=O)N[C@@H](CCC(=O)O)C(=O)N2)NC(=O)[C@H](CC(C)C)NC(=O)[C@H](CCCNC(=N)N)NC(=O)[C@H]([C@@H](C)O)NC1=O [LEAP2, liver-expressed antimicrobial peptide 2] (H-MTPFWRGVSLRPIGASCRDDSECITRLCRKRRCSLSVAQE-OH; disulfide 17-28, 23-33 (inferred); N-terminus and C-terminus assumed)
[1]; healthy men n = 20, LEAP2 day, before infusion (mean of -35, -10, 0 min)
  Glucose Baseline: 5.02 ± 0.06 mmol/L
[1]; healthy men n = 20, iv LEAP2 ~25 pmol/kg/min, 0 to 255 min, trapezoidal
  Glucose AUC: 1,288 ± 13.4 mmol/L × min
[1]; healthy men n = 20, iv LEAP2 ~25 pmol/kg/min, after liquid mixed meal
  Glucose Postprandial end: 4.48 ± 0.11 mmol/L
[1]; [4]
  plasma glucose AUC 0–60 min: 295 ± 3.02 mmol/L/min
[1]; [5]
  Glucose Peak: 6.21 ± 0.12 mmol/L
  Glucose Time to peak: 140 ± 12.7 min
[1]; healthy men n = 20, iv LEAP2 ~25 pmol/kg/min, postprandial period after liquid mixed meal
  Glucose AUC60–255 min: 992 ± 12.4 mmol·min/L
[1]; [6]
  Glucose Postprandial baseline: 4.96 ± 0.05 mmol/L
[2]; healthy men n = 20, LEAP2 day, before infusion
  Acyl ghrelin Baseline: 0.155 ± 0.011 ng/mL
[2]; healthy men n = 20, iv LEAP2 ~25 pmol/kg/min, 0 to 255 min
  Acyl ghrelin AUC: 31.2 ± 1.94 ng·min/mL
[2]; [4]
  Acyl ghrelin AUC0–60 min: 9.50 ± 0.67 ng·min/mL
[2]; [5]
  Acyl ghrelin Nadir: 0.088 ± 0.006 ng/mL
[2]; healthy men n = 20, iv LEAP2 ~25 pmol/kg/min, postprandial period
  Acyl ghrelin AUC60–255 min: 21.7 ± 1.33 ng·min/mL
[2]; [6]
  Acyl ghrelin Postprandial baseline: 0.161 ± 0.012 ng/mL
[3]; healthy men n = 8, iv 10 min at ~101 pmol/kg/min then 110 min at ~25 pmol/kg/min, plasma, radioimmunoassay, one-compartment model (Monolix)
  half-life of LEAP2: ~9 min
[3]; healthy men n = 8, one-compartment model assuming constant endogenous production
  endogenous production rate of LEAP2: 1.9 ± 0.14 nmol/min
[3]; male, human, plasma, healthy men n = 8, iv 10 min at ~101 pmol/kg/min then 110 min at ~25 pmol/kg/min, 150-min wash-out, one-compartment model (Monolix), read-out: volume of distribution of LEAP2
  Vd: 14 ± 5.3 L
[3]; male, human, plasma, healthy men n = 8, iv 10 min at ~101 pmol/kg/min then 110 min at ~25 pmol/kg/min, one-compartment model (Monolix), read-out: metabolic clearance rate of LEAP2
  clearance: 860 ± 170 mL/min
[3]; male, human, healthy men n = 8, iv 10 min at ~101 pmol/kg/min then 110 min at ~25 pmol/kg/min, plasma, radioimmunoassay, one-compartment model (Monolix)
  half-life: 9.1 ± 2.5 min
